Measurements as given in ChEMBL document CHEMBL3616410, “Linked pyridinyl-thiadiazoles: Design and synthesis as potential candidate for treatment of XDR and MDR tuberculosis” (Eur J Med Chem, 2015).
Converted amounts (≈) assume the structure as drawn.

Experiments:
[1] = tested on: Mycobacterium tuberculosis; assay: Bactericidal activity against Mycobacterium tuberculosis H37Rv ATCC 27294 after 5 days by spectrophotometry; format: functional
[2] = tested on: Mycobacterium tuberculosis; assay: Antimycobacterial activity against Mycobacterium tuberculosis H37Rv ATCC 27294 after 5 days by spectrophotometry; format: functional; details: H37Rv ATCC 27294, 120 h
[3] = Cytotoxicity against human HepG2 cells after 3 days; format: cell-based
[4] = Cytotoxicity against hamster BHK21 cells after 3 days; format: cell-based, Mesocricetus auratus, BHK-21
[5] = tested on: Mycobacterium tuberculosis; assay: Antimycobacterial activity against Mycobacterium tuberculosis TN675 after 5 days by spectrophotometry; format: functional; details: TN675, 120 h
[6] = tested on: Mycobacterium tuberculosis; assay: Antimycobacterial activity against Mycobacterium tuberculosis TN913 after 5 days by spectrophotometry; format: functional; details: TN913, 120 h
[7] = tested on: Mycobacterium tuberculosis; assay: Antimycobacterial activity against Mycobacterium tuberculosis TN994 after 5 days by spectrophotometry; format: functional; details: TN994, 120 h
[8] = tested on: Mycobacterium tuberculosis; assay: Antimycobacterial activity against Mycobacterium tuberculosis TN1008 after 5 days by spectrophotometry; format: functional; details: TN1008, 120 h
[9] = tested on: Mycobacterium tuberculosis; assay: Antimycobacterial activity against Mycobacterium tuberculosis TN1037 after 5 days by spectrophotometry; format: functional; details: TN1037, 120 h
[10] = tested on: Mycobacterium tuberculosis; assay: Antimycobacterial activity against Mycobacterium tuberculosis TN1040 after 5 days by spectrophotometry; format: functional; details: TN1040, 120 h
[11] = tested on: Mycobacterium tuberculosis; assay: Antimycobacterial activity against Mycobacterium tuberculosis TN1051 after 5 days by spectrophotometry; format: functional; details: TN1051, 120 h
[12] = tested on: Mycobacterium tuberculosis; assay: Antimycobacterial activity against Mycobacterium tuberculosis TN1082 after 5 days by spectrophotometry; format: functional; details: TN1082, 120 h
[13] = tested on: Mycobacterium tuberculosis; assay: Antimycobacterial activity against Mycobacterium tuberculosis TN2351 after 5 days by spectrophotometry; format: functional; details: TN2351, 120 h
[14] = tested on: Mycobacterium tuberculosis; assay: Antimycobacterial activity against Mycobacterium tuberculosis TN2524 after 5 days by spectrophotometry; format: functional; details: TN2524, 120 h
[15] = tested on: Mycobacterium tuberculosis; assay: Antimycobacterial activity against Mycobacterium tuberculosis TN3183 after 5 days by spectrophotometry; format: functional; details: TN3183, 120 h
[16] = tested on: Mycobacterium tuberculosis; assay: Antimycobacterial activity against Mycobacterium tuberculosis TN3979 after 5 days by spectrophotometry; format: functional; details: TN3979, 120 h
[17] = tested on: Mycobacterium tuberculosis; assay: Antimycobacterial activity against Mycobacterium tuberculosis TN4259 after 5 days by spectrophotometry; format: functional; details: TN4259, 120 h
[18] = tested on: Mycobacterium tuberculosis; assay: Antimycobacterial activity against Mycobacterium tuberculosis AH9584 after 5 days by spectrophotometry; format: functional; details: AH9584, 120 h
[19] = tested on: Mycobacterium tuberculosis; assay: Antimycobacterial activity against Mycobacterium tuberculosis BE11677 after 5 days by spectrophotometry; format: functional; details: BE11677, 120 h
[20] = tested on: Mycobacterium tuberculosis; assay: Antimycobacterial activity against Mycobacterium tuberculosis E8133 after 5 days by spectrophotometry; format: functional; details: E8133, 120 h
[21] = tested on: Mycobacterium tuberculosis; assay: Antimycobacterial activity against Mycobacterium tuberculosis W4 after 5 days by spectrophotometry; format: functional; details: W4, 120 h

Row | SMILES | MBC90 [1] | MIC50 [2] | CC50 at 72 h [3] | CC50 at 72 h [4] | other results
1 | O=C(CSc1nnc(-c2ccncc2)s1)Nc1ccccc1 | 1.25 µM (≈ 0.411 µg/mL) | 0.18 µM (≈ 0.0591 µg/mL) | 15.2 µM | 16.2 µM | –
2 | O=C(CSc1nnc(-c2ccncc2)s1)NCc1ccccc1 | 1.25 µM (≈ 0.428 µg/mL) | 0.19 µM (≈ 0.0651 µg/mL) | 17.7 µM | 11.3 µM | –
3 | O=C(CSc1nnc(-c2ccncc2)s1)NCc1ccccc1Cl | – | 9.67 µM (≈ 3.64 µg/mL) | – | – | –
4 | O=C(CSc1nnc(-c2ccncc2)s1)NCc1ccc(Cl)cc1 | – | 11.7 µM (≈ 4.42 µg/mL) | > 50 µM | > 50 µM | –
5 | O=C(CSc1nnc(-c2ccncc2)s1)Nc1ccccc1Cl | – | 8.52 µM (≈ 3.09 µg/mL) | > 50 µM | > 50 µM | –
6 | O=C(CSc1nnc(-c2ccncc2)s1)Nc1ccc(Cl)cc1 | – | 6.81 µM (≈ 2.47 µg/mL) | > 50 µM | > 50 µM | –
7 | O=C(CSc1nnc(-c2ccncc2)s1)Nc1c(Cl)cccc1Cl | – | > 20 µM | – | – | –
8 | O=C(CSc1nnc(-c2ccncc2)s1)Nc1ccc(Cl)cc1Cl | – | > 20 µM | – | – | –
9 | CC(Sc1nnc(-c2ccncc2)s1)C(=O)Nc1ccccc1 (stereo unspecified) | 5 µM (≈ 1.71 µg/mL) | 1.48 µM (≈ 0.507 µg/mL) | > 50 µM | > 50 µM | –
10 | CC(Sc1nnc(-c2ccncc2)s1)C(=O)NCc1ccccc1 (stereo unspecified) | 5 µM (≈ 1.78 µg/mL) | 1.15 µM (≈ 0.41 µg/mL) | > 50 µM | > 50 µM | –
11 | CC(Sc1nnc(-c2ccncc2)s1)C(=O)NCc1ccccc1Cl (stereo unspecified) | 5 µM (≈ 1.95 µg/mL) | 1.26 µM (≈ 0.493 µg/mL) | > 50 µM | > 50 µM | –
12 | CC(Sc1nnc(-c2ccncc2)s1)C(=O)NCc1ccc(Cl)cc1 (stereo unspecified) | – | > 20 µM | – | – | –
13 | CC(Sc1nnc(-c2ccncc2)s1)C(=O)Nc1ccccc1Cl (stereo unspecified) | 5 µM (≈ 1.88 µg/mL) | 1.04 µM (≈ 0.392 µg/mL) | > 50 µM | > 50 µM | –
14 | CC(Sc1nnc(-c2ccncc2)s1)C(=O)Nc1ccc(Cl)cc1 (stereo unspecified) | 1.25 µM (≈ 0.471 µg/mL) | 0.12 µM (≈ 0.0452 µg/mL) | > 50 µM | > 50 µM | –
15 | CC(Sc1nnc(-c2ccncc2)s1)C(=O)Nc1c(Cl)cccc1Cl (stereo unspecified) | 5 µM (≈ 2.06 µg/mL) | 1.19 µM (≈ 0.489 µg/mL) | > 50 µM | > 50 µM | –
16 | CC(Sc1nnc(-c2ccncc2)s1)C(=O)Nc1ccc(Cl)cc1Cl (stereo unspecified) | 5 µM (≈ 2.06 µg/mL) | 2.45 µM (≈ 1.01 µg/mL) | > 50 µM | > 50 µM | –
17 | O=C(CCSc1nnc(-c2ccncc2)s1)Nc1ccccc1 | 2.5 µM (≈ 0.856 µg/mL) | 0.61 µM (≈ 0.209 µg/mL) | > 50 µM | > 50 µM | –

Row | SMILES | MBC90 [1] | MIC50 [2] | CC50 at 72 h [3] | CC50 at 72 h [4] | other results
18 | O=C(CCSc1nnc(-c2ccncc2)s1)NCc1ccccc1 | 2.5 µM (≈ 0.891 µg/mL) | 0.67 µM (≈ 0.239 µg/mL) | 14 µM | 18.7 µM | –
19 | O=C(CCSc1nnc(-c2ccncc2)s1)NCc1ccccc1Cl | 2.5 µM (≈ 0.977 µg/mL) | 0.65 µM (≈ 0.254 µg/mL) | > 50 µM | > 50 µM | –
20 | O=C(CCSc1nnc(-c2ccncc2)s1)NCc1ccc(Cl)cc1 | 2.5 µM (≈ 0.977 µg/mL) | 0.63 µM (≈ 0.246 µg/mL) | 15.6 µM | 21.5 µM | –
21 | O=C(CCSc1nnc(-c2ccncc2)s1)Nc1ccccc1Cl | 2.5 µM (≈ 0.942 µg/mL) | 0.62 µM (≈ 0.234 µg/mL) | > 50 µM | > 50 µM | –
22 | O=C(CCSc1nnc(-c2ccncc2)s1)Nc1ccc(Cl)cc1 | 1.25 µM (≈ 0.471 µg/mL) | 0.07 µM (≈ 0.0264 µg/mL) | 7.26 µM | 8.21 µM | MIC [2]: 0.015 µg/mL (≈ 0.0398 µM); MIC [5]: 0.013 µg/mL (≈ 0.0345 µM); MIC [6]: 0.013 µg/mL (≈ 0.0345 µM); MIC [7]: 0.03 µg/mL (≈ 0.0796 µM); MIC [8]: 0.06 µg/mL (≈ 0.159 µM); MIC [9]: 0.06 µg/mL (≈ 0.159 µM); MIC [10]: 0.03 µg/mL (≈ 0.0796 µM); MIC [11]: 0.06 µg/mL (≈ 0.159 µM); MIC [12]: 0.06 µg/mL (≈ 0.159 µM); MIC [13]: 0.25 µg/mL (≈ 0.663 µM); MIC [14]: 0.25 µg/mL (≈ 0.663 µM); MIC [15]: 0.06 µg/mL (≈ 0.159 µM); MIC [16]: 0.13 µg/mL (≈ 0.345 µM); MIC [17]: 0.06 µg/mL (≈ 0.159 µM); MIC [18]: 0.25 µg/mL (≈ 0.663 µM); MIC [19]: 0.25 µg/mL (≈ 0.663 µM); MIC [20]: 0.13 µg/mL (≈ 0.345 µM); MIC [21]: 0.06 µg/mL (≈ 0.159 µM)
23 | O=C(CCSc1nnc(-c2ccncc2)s1)Nc1c(Cl)cccc1Cl | 2.5 µM (≈ 1.03 µg/mL) | 0.59 µM (≈ 0.243 µg/mL) | 12.6 µM | 10.3 µM | –
24 | O=C(CCSc1nnc(-c2ccncc2)s1)Nc1ccc(Cl)cc1Cl | 2.5 µM (≈ 1.03 µg/mL) | 0.55 µM (≈ 0.226 µg/mL) | > 50 µM | > 50 µM | –
25 | CC(CSc1nnc(-c2ccncc2)s1)C(=O)Nc1ccccc1 (stereo unspecified) | 5 µM (≈ 1.78 µg/mL) | 2.26 µM (≈ 0.806 µg/mL) | > 50 µM | > 50 µM | –
26 | CC(CSc1nnc(-c2ccncc2)s1)C(=O)NCc1ccccc1 (stereo unspecified) | 5 µM (≈ 1.85 µg/mL) | 2.51 µM (≈ 0.93 µg/mL) | > 50 µM | > 50 µM | –
27 | CC(CSc1nnc(-c2ccncc2)s1)C(=O)NCc1ccccc1Cl (stereo unspecified) | 5 µM (≈ 2.02 µg/mL) | 1.89 µM (≈ 0.765 µg/mL) | > 50 µM | > 50 µM | –
28 | CC(CSc1nnc(-c2ccncc2)s1)C(=O)NCc1ccc(Cl)cc1 (stereo unspecified) | – | 1.68 µM (≈ 0.68 µg/mL) | – | – | –
29 | CC(CSc1nnc(-c2ccncc2)s1)C(=O)Nc1ccccc1Cl (stereo unspecified) | 5 µM (≈ 1.95 µg/mL) | 2.05 µM (≈ 0.801 µg/mL) | > 50 µM | > 50 µM | –
30 | CC(CSc1nnc(-c2ccncc2)s1)C(=O)Nc1ccc(Cl)cc1 (stereo unspecified) | 1.25 µM (≈ 0.489 µg/mL) | 0.22 µM (≈ 0.086 µg/mL) | > 50 µM | > 50 µM | –
31 | CC(CSc1nnc(-c2ccncc2)s1)C(=O)Nc1c(Cl)cccc1Cl (stereo unspecified) | 5 µM (≈ 2.13 µg/mL) | 1.55 µM (≈ 0.659 µg/mL) | > 50 µM | > 50 µM | –
32 | CC(CSc1nnc(-c2ccncc2)s1)C(=O)Nc1ccc(Cl)cc1Cl (stereo unspecified) | 5 µM (≈ 2.13 µg/mL) | 1.48 µM (≈ 0.63 µg/mL) | > 50 µM | > 50 µM | –
33 | S=c1[nH]nc(-c2ccncc2)s1 | 1.25 µM (≈ 0.244 µg/mL) | 0.2 µM (≈ 0.0391 µg/mL) | 19.7 µM | 14.7 µM | –
34 | NNC(=O)c1ccncc1 [ISONIAZID] | – | 0.03 µM (≈ 0.00411 µg/mL) | – | – | MIC [2]: 0.03 µg/mL (≈ 0.219 µM); MIC [5]: 0.03 µg/mL (≈ 0.219 µM); MIC [6]: 0.03 µg/mL (≈ 0.219 µM); MIC [7]: 0.03 µg/mL (≈ 0.219 µM); MIC [8]: 0.06 µg/mL (≈ 0.438 µM); MIC [9]: 0.03 µg/mL (≈ 0.219 µM); MIC [10]: 0.03 µg/mL (≈ 0.219 µM); MIC [11]: 0.03 µg/mL (≈ 0.219 µM); MIC [12]: 0.03 µg/mL (≈ 0.219 µM); MIC [13]: 0.06 µg/mL (≈ 0.438 µM); MIC [14]: 0.06 µg/mL (≈ 0.438 µM); MIC [15]: 0.03 µg/mL (≈ 0.219 µM); MIC [16]: 0.06 µg/mL (≈ 0.438 µM); MIC [17]: 0.03 µg/mL (≈ 0.219 µM); MIC [18]: 0.19 µg/mL (≈ 1.39 µM); MIC [19]: 0.2 µg/mL (≈ 1.46 µM); MIC [20]: 0.08 µg/mL (≈ 0.583 µM); MIC [21]: 0.03 µg/mL (≈ 0.219 µM)
